{"source": "patent US8920832B2", "about": "“Composition for nucleic acid transfection” (Hokkaido System Science Co., Ltd., priority 2006, dated 2014)", "key": {"HT1080 cells [1]": {"test_system": "HT1080 cells", "test": "Cytotoxicity score under microscope after DNA transfection, HT1080 cells", "assay_type": "cell-based", "set-up": "scale not given here", "source_text": "(§1) The procedure of Test Example 5 was repeated, except that HeLa cells were replaced with HT1080 cells.\n(§2) The procedure of Test Example 7 was repeated, except that HeLa cells were replaced with HT1080 cells."}, "HT1080 cells [2]": {"test_system": "HT1080 cells", "test": "Viable cell counting (WST-1), cell survival rate, HT1080 cells", "assay_type": "cell-based", "conditions": "Formulation Example 4 0.38 μL/well", "protocol": "(§3) Viable cell counting was carried out by means of a Cell Counting Kit (product of Dojindo Laboratories) based on WST-1 assay. […] Thereafter, absorbance was measured at 450 nm. A cell count vs. A450 standard curve was prepared on the basis of a separately prepared dilution series of different numbers of inoculated cells, and the number of viable cells was estimated by use of the standard curve.\nas §1, §2"}, "HeLa cells [3]": {"test_system": "HeLa cells", "test": "Viable cell counting (WST-1), cell survival rate, HeLa cells", "assay_type": "cell-based", "conditions": "Formulation Example 4 0.38 μL/well", "protocol": "as §3"}, "HT1080 cells [4]": {"test_system": "HT1080 cells", "test": "DNA (pCMV-SPORT-βgal) transfection into HT1080 cells: β-gal activity", "assay_type": "cell-based", "source_text": "as §1, §2"}, "HeLa cells [5]": {"test_system": "HeLa cells", "test": "Cytotoxicity score under microscope after DNA transfection, HeLa cells", "assay_type": "cell-based", "method": "(§4) HeLa cells were inoculated into a 96-well plate (7,500 cells/100 μL/well), followed by culturing for about 24 hours. DNA (pCMV-SPORT-βgal) was diluted with a DMEM medium, to thereby prepare a DNA-diluted solution having a DNA concentration of 8 μg/mL (for the case of 200 ng/well). […] The thus-obtained solution or Lipofectamine 2000 as a positive control (product of Invitrogen) was diluted with a DMEM medium so that the amount of the reconstituted liposome solution or Lipofectamine 2000 added to cells was “Amount of liposomes added (μL/well)” shown in Table 9 or 10. Immediately after dilution, the DNA-diluted solution (25 μL) was added to and mixed with the liposome-diluted solution (25 μL), and the mixture was allowed to stand still at room temperature for 30 minutes, to thereby form a DNA/liposome complex. The DNA/liposome complex (50 μL) was added to the inoculated HeLa cells (about 70 to about 90% confluent), to thereby initiate transfection. After culturing at 37° C. and 5% CO2 for one hour, a 10% FBS/DMEM medium (100 μL) was added to the culture liquid, followed by culturing at 37° C. and 5% CO2 for about 21 hours.\n(§5) Each of the enhancers shown in Table 13 was diluted with a DMEM medium to different concentrations so that the amount of the enhancer finally added to cells was “Enhancer amount (μg/well)” shown in Table 13. […] The thus-diluted liposome solution was added to an equiamount of the above-diluted enhancer, followed by incubation at room temperature for 20 minutes. […] Subsequently, cytotoxicity was evaluated according to the aforementioned scores, and determination of β-gal activity, quantitative determination of protein, and viable cell counting were carried out."}, "HeLa cells [6]": {"test_system": "HeLa cells", "test": "DNA (pCMV-SPORT-βgal) transfection into HeLa cells: β-gal activity", "conditions": "for β-gal activity: HeLa", "method": "as §4\nThe culture supernatant was removed, and the cells were washed with PBS(−). Thereafter, determination of β-galactosidase (hereinafter may be abbreviated as “β-gal”) activity, quantitative determination of protein, and viable cell counting were carried out as described below.\nAfter complete removal of PBS through suction, a lysis buffer (30 μL) was added to the cells, and the mixture was stirred and then allowed to stand still at −80° C. for 30 minutes or longer for freezing. After rapid thawing in a water bath at 37° C., the mixture was again allowed to stand still at −80° C. for 30 minutes or longer for freezing, followed by rapid thawing in a water bath at 37° C. Thereafter, centrifugation was carried out (2,000 g×10 minutes), and the resultant supernatant (sample) (10 μL) was added to a 96-well microplate.\nDetermination of β-gal activity was carried out by means of a β-gal assay kit (product of Invitrogen). […] A 2-Me-containing cleavage buffer was added (50 μL/well) to the sample or each of the standard-diluted solutions (10 μL), and 4 mg/mL aqueous ONPG solution was added (17 μL/well), followed by incubation at 37° C. for 30 minutes. After completion of incubation, a stop buffer was added (120 μL/well) for termination of reaction, and absorbance was measured at 405 nm.\nas §5"}, "[7]": {"conditions": "Formulation Example 4 0.38 μL/well, enhancer 2.5 μg/well"}, "[8]": {"conditions": "Formulation Example 4 0.38 μL/well, enhancer 5 μg/well"}, "[9]": {"conditions": "Formulation Example 4 0.38 μL/well, enhancer 10 μg/well"}, "[10]": {"conditions": "Formulation Example 4 0.38 μL/well, enhancer 20 μg/well"}, "[11]": {"conditions": "Formulation Example 4 0.38 μL/well, enhancer 40 μg/well"}, "[12]": {"conditions": "Formulation Example 4 0.38 μL/well, enhancer 6.25 μg/well"}, "[13]": {"conditions": "Formulation Example 4 0.38 μL/well, enhancer 12.5 μg/well"}, "[14]": {"conditions": "Formulation Example 4 0.38 μL/well, enhancer 25 μg/well"}, "[15]": {"conditions": "Formulation Example 4 0.38 μL/well, enhancer 50 μg/well"}, "[16]": {"conditions": "Formulation Example 4 0.38 μL/well, enhancer 100 μg/well"}, "[17]": {"conditions": "Formulation Example 4 0.75 μL/well, enhancer 6.25 μg/well"}, "[18]": {"conditions": "Formulation Example 4 0.75 μL/well, enhancer 12.5 μg/well"}, "[19]": {"conditions": "Formulation Example 4 0.75 μL/well, enhancer 25 μg/well"}, "[20]": {"conditions": "Formulation Example 4 0.75 μL/well, enhancer 50 μg/well"}, "[21]": {"conditions": "Formulation Example 4 0.75 μL/well, enhancer 100 μg/well"}}}
{"smiles": "CCCC(=O)[O-].[Na+]", "note": "[sodium butyrate]", "values": [{"measurement": "Cytotoxicity score", "setting": "HT1080 cells [1]; [7]", "result": 1.5}, {"measurement": "Cytotoxicity score", "setting": "HT1080 cells [1]; [8]", "result": 1.5}, {"measurement": "Cytotoxicity score", "setting": "HT1080 cells [1]; [9]", "result": 2.0}, {"measurement": "Cytotoxicity score", "setting": "HT1080 cells [1]; [10]", "result": 2.5}, {"measurement": "Cytotoxicity score", "setting": "HT1080 cells [1]; [11]", "result": 3.0}, {"measurement": "Cell survival rate", "setting": "HT1080 cells [2]; enhancer 2.5 μg/well", "result": 55, "unit": "%"}, {"measurement": "Cell survival rate", "setting": "HT1080 cells [2]; enhancer 5 μg/well", "result": 50, "unit": "%"}, {"measurement": "Cell survival rate", "setting": "HT1080 cells [2]; enhancer 10 μg/well", "result": 53, "unit": "%"}, {"measurement": "Cell survival rate", "setting": "HT1080 cells [2]; enhancer 20 μg/well", "result": 52, "unit": "%"}, {"measurement": "Cell survival rate", "setting": "HT1080 cells [2]; enhancer 40 μg/well", "result": 62, "unit": "%"}, {"measurement": "Cell survival rate", "setting": "HeLa cells [3]; enhancer 2.5 μg/well", "result": 67, "unit": "%"}, {"measurement": "Cell survival rate", "setting": "HeLa cells [3]; enhancer 5 μg/well", "result": 73, "unit": "%"}, {"measurement": "Cell survival rate", "setting": "HeLa cells [3]; enhancer 10 μg/well", "result": 65, "unit": "%"}, {"measurement": "Cell survival rate", "setting": "HeLa cells [3]; enhancer 20 μg/well", "result": 66, "unit": "%"}, {"measurement": "Cell survival rate", "setting": "HeLa cells [3]; enhancer 40 μg/well", "result": 68, "unit": "%"}, {"measurement": "β-gal activity", "setting": "HT1080 cells [4]; [7]", "result": 45.0, "unit": "mU/well"}, {"measurement": "β-gal activity", "setting": "HT1080 cells [4]; [8]", "result": 40.2, "unit": "mU/well"}, {"measurement": "β-gal activity", "setting": "HT1080 cells [4]; [9]", "result": 37.3, "unit": "mU/well"}, {"measurement": "β-gal activity", "setting": "HT1080 cells [4]; [10]", "result": 40.3, "unit": "mU/well"}, {"measurement": "β-gal activity", "setting": "HT1080 cells [4]; [11]", "result": 45.6, "unit": "mU/well"}, {"measurement": "Cytotoxicity score", "setting": "HeLa cells [5]; [7]", "result": 1.5}, {"measurement": "Cytotoxicity score", "setting": "HeLa cells [5]; [8]", "result": 1.0}, {"measurement": "Cytotoxicity score", "setting": "HeLa cells [5]; [9]", "result": 1.0}, {"measurement": "Cytotoxicity score", "setting": "HeLa cells [5]; [10]", "result": 1.5}, {"measurement": "Cytotoxicity score", "setting": "HeLa cells [5]; [11]", "result": 2.0}, {"measurement": "β-gal activity", "setting": "HeLa cells [6]; [7]", "result": 20.4, "unit": "mU/well"}, {"measurement": "β-gal activity", "setting": "HeLa cells [6]; [8]", "result": 19.8, "unit": "mU/well"}, {"measurement": "β-gal activity", "setting": "HeLa cells [6]; [9]", "result": 18.7, "unit": "mU/well"}, {"measurement": "β-gal activity", "setting": "HeLa cells [6]; [10]", "result": 20.9, "unit": "mU/well"}, {"measurement": "β-gal activity", "setting": "HeLa cells [6]; [11]", "result": 26.7, "unit": "mU/well"}, {"measurement": "effect of enhancer on nucleic-acid-transfecting performance and cytotoxicity, in words", "setting": "HeLa cells [6]; enhancer added to liposome solution of Formulation Example 4, summary of Tables 13 and 14 (HeLa and HT1080)", "result": "excellent effects"}]}
{"smiles": "NCCCNCCCCNCCCN", "note": "[Spermine]", "values": [{"measurement": "Cytotoxicity score", "setting": "HT1080 cells [1]; [12]", "result": 2.5}, {"measurement": "Cytotoxicity score", "setting": "HT1080 cells [1]; [13]", "result": 2.0}, {"measurement": "Cytotoxicity score", "setting": "HT1080 cells [1]; [14]", "result": 2.5}, {"measurement": "Cytotoxicity score", "setting": "HT1080 cells [1]; [15]", "result": 2.0}, {"measurement": "Cytotoxicity score", "setting": "HT1080 cells [1]; [16]", "result": 1.0}, {"measurement": "Cytotoxicity score", "setting": "HT1080 cells [1]; [17]", "result": 2.0}, {"measurement": "Cytotoxicity score", "setting": "HT1080 cells [1]; [18]", "result": 2.5}, {"measurement": "Cytotoxicity score", "setting": "HT1080 cells [1]; [19]", "result": 3.0}, {"measurement": "Cytotoxicity score", "setting": "HT1080 cells [1]; [20]", "result": 2.0}, {"measurement": "Cytotoxicity score", "setting": "HT1080 cells [1]; [21]", "result": 2.0}, {"measurement": "β-gal activity", "setting": "HT1080 cells [4]; [12]", "result": 31.1, "unit": "mU/well"}, {"measurement": "β-gal activity", "setting": "HT1080 cells [4]; [13]", "result": 29.1, "unit": "mU/well"}, {"measurement": "β-gal activity", "setting": "HT1080 cells [4]; [14]", "result": 34.9, "unit": "mU/well"}, {"measurement": "β-gal activity", "setting": "HT1080 cells [4]; [15]", "result": 21.5, "unit": "mU/well"}, {"measurement": "β-gal activity", "setting": "HT1080 cells [4]; [16]", "result": 6.8, "unit": "mU/well"}, {"measurement": "β-gal activity", "setting": "HT1080 cells [4]; [17]", "result": 76.5, "unit": "mU/well"}, {"measurement": "β-gal activity", "setting": "HT1080 cells [4]; [18]", "result": 64.6, "unit": "mU/well"}, {"measurement": "β-gal activity", "setting": "HT1080 cells [4]; [19]", "result": 72.9, "unit": "mU/well"}, {"measurement": "β-gal activity", "setting": "HT1080 cells [4]; [20]", "result": 10.9, "unit": "mU/well"}, {"measurement": "β-gal activity", "setting": "HT1080 cells [4]; [21]", "result": 1.3, "unit": "mU/well"}, {"measurement": "Cytotoxicity score", "setting": "HeLa cells [5]; [12]", "result": 0.0}, {"measurement": "Cytotoxicity score", "setting": "HeLa cells [5]; [13]", "result": 0.0}, {"measurement": "Cytotoxicity score", "setting": "HeLa cells [5]; [14]", "result": 0.0}, {"measurement": "Cytotoxicity score", "setting": "HeLa cells [5]; [15]", "result": 2.0}, {"measurement": "Cytotoxicity score", "setting": "HeLa cells [5]; [16]", "result": 2.0}, {"measurement": "Cytotoxicity score", "setting": "HeLa cells [5]; [17]", "result": 4.0}, {"measurement": "Cytotoxicity score", "setting": "HeLa cells [5]; [18]", "result": 4.0}, {"measurement": "Cytotoxicity score", "setting": "HeLa cells [5]; [19]", "result": 4.0}, {"measurement": "Cytotoxicity score", "setting": "HeLa cells [5]; [20]", "result": 4.0}, {"measurement": "Cytotoxicity score", "setting": "HeLa cells [5]; [21]", "result": 2.0}, {"measurement": "β-gal activity", "setting": "HeLa cells [6]; [12]", "result": 0.8, "unit": "mU/well"}, {"measurement": "β-gal activity", "setting": "HeLa cells [6]; [13]", "result": 1.0, "unit": "mU/well"}, {"measurement": "β-gal activity", "setting": "HeLa cells [6]; [14]", "result": 0.2, "unit": "mU/well"}, {"measurement": "β-gal activity", "setting": "HeLa cells [6]; [15]", "result": 0.2, "unit": "mU/well"}, {"measurement": "β-gal activity", "setting": "HeLa cells [6]; [16]", "result": 0.1, "unit": "mU/well"}, {"measurement": "β-gal activity", "setting": "HeLa cells [6]; [17]", "result": 1.8, "unit": "mU/well"}, {"measurement": "β-gal activity", "setting": "HeLa cells [6]; [18]", "result": 0.1, "unit": "mU/well"}, {"measurement": "β-gal activity", "setting": "HeLa cells [6]; [19]", "result": 0.0, "unit": "mU/well"}, {"measurement": "β-gal activity", "setting": "HeLa cells [6]; [20]", "result": 0.1, "unit": "mU/well"}, {"measurement": "β-gal activity", "setting": "HeLa cells [6]; [21]", "result": 0.3, "unit": "mU/well"}]}
